Assay results as given in ChEMBL document CHEMBL5113380, “Functionalized quinoxalinones as privileged structures with broad-ranging pharmacological activities” (Eur J Med Chem, 2022).
Values after ≈ are worked out from the molar mass of the structure shown.

Legend:
[1] = molecular target: Glutamate [NMDA] receptor; assay: Displacement of [3H]MK-801 from NMDA receptor (unknown origin); type: protein-complex assay, Homo sapiens
[2] = Displacement of [3H]glycine from AMPA receptor (unknown origin); type: protein-complex assay, Homo sapiens
[3] = molecular target: T1, Glutamate receptor ionotropic AMPA (Homo sapiens, UniProt P42261+P42262+P42263+P48058); assay: Displacement of [3H]AMPA from AMPA receptor (unknown origin); type: protein-complex assay
Candida [4] = assay: Antifungal activity against Candida species isolate 2; type: functional
Candida parapsilosis = assay: Antifungal activity against Candida parapsilosis; type: functional; conditions: Lodderomyces parapsilosis
Candida [5] = assay: Antifungal activity against Candida species isolate 1; type: functional
Nakaseomyces glabratus = assay: Antifungal activity against Candida glabrata; type: functional
Pichia kudriavzevii = assay: Antifungal activity against Candida krusei; type: functional
Candida [6] = assay: Antifungal activity against Candida species isolate 3; type: functional
Candida tropicalis = assay: Antifungal activity against Candida tropicalis; type: functional
Candida albicans = assay: Antifungal activity against Candida albicans; type: functional
Escherichia coli [7] = assay: Antibacterial activity against Escherichia coli assessed as diameter zone of inhibition; type: functional
Bacillus subtilis = assay: Antibacterial activity against Bacillus subtilis assessed as diameter zone of inhibition; type: functional
Staphylococcus aureus [8] = assay: Antibacterial activity against Staphylococcus aureus assessed as diameter zone of inhibition; type: functional
MRC5 = assay: Antiproliferative activity against human MRC5 cells; type: functional, cell-based
A549 = assay: Antiproliferative activity against human A549 cells; type: functional, cell-based
HeLa = assay: Antiproliferative activity against human HeLa cells; type: functional, cell-based
LS174T = assay: Antiproliferative activity against human LS174T cells; type: functional, cell-based
Pyricularia grisea [9] = assay: Antifungal activity against Magnaporthe grisea GD08-T19 assessed as diameter zone of inhibition; type: functional
Pyricularia grisea [10] = assay: Antifungal activity against Magnaporthe grisea GD08-T19 at 50 ug/ml; type: functional; conditions: dose 50 µg/ml
Staphylococcus aureus [11] = assay: Antibacterial activity against Staphylococcus aureus; type: functional
Escherichia coli [12] = assay: Antibacterial activity against Escherichia coli; type: functional
[13] = Antioxidant activity assessed as DPPH radical scavenging activity; type: functional; conditions: read-out: IC50
Klebsiella pneumoniae = assay: Antibacterial activity against Klebsiella pneumoniae; type: functional
Pseudomonas aeruginosa = assay: Antibacterial activity against Pseudomonas aeruginosa; type: functional
Staphylococcus aureus [14] = assay: Antibacterial activity against methicillin-resistant Staphylococcus aureus; type: functional
Alpha amylase = molecular target: T2, Alpha amylase (Homo sapiens, UniProt P0DUB6); assay: Inhibition of alpha-amylase (unknown origin)
T2 sequence (P0DUB6 whole entry): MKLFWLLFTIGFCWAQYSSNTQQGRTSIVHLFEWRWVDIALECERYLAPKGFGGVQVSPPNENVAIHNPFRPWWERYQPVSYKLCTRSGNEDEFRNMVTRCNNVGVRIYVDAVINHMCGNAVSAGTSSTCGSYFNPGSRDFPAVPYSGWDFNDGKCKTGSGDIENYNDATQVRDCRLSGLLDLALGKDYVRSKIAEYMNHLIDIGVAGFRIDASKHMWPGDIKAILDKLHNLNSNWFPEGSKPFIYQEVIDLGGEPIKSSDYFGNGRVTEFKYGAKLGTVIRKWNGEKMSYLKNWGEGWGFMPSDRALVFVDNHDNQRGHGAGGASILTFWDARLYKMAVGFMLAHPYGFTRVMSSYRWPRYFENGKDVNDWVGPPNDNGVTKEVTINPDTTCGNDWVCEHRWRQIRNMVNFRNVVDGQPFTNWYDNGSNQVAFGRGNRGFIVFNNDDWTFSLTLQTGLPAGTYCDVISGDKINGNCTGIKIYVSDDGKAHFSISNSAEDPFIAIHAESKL

B16-F10 = assay: Antiproliferative activity against mouse B16-F10 cells after 72 hrs by MTT assay; type: functional, cell-based; conditions: B16-F10, 72 h
HeLa 229 = assay: Antiproliferative activity against human HeLa 229 cells after 72 hrs by MTT assay; type: functional, cell-based; conditions: HeLa 229, 72 h
HCT-116 = assay: Antiproliferative activity against human HCT-116 cells after 72 hrs by MTT assay; type: functional, cell-based; conditions: HCT-116, 72 h
NCI-H460 = assay: Antiproliferative activity against human NCI-H460 cells after 72 hrs by MTT assay; type: functional, cell-based; conditions: NCI-H460, 72 h
[15] = molecular target: T1, Glutamate receptor ionotropic AMPA; assay: Displacement of [3H]kainic acid from AMPA receptor (unknown origin); type: protein-complex assay

Q: Which EC50 [1] does the source give for `O=C(O)c1nc2c(=O)[nH]c3cc(Cl)c(Cl)cc3n2n1` here?
A: 0.3 µM

Q: And the Ki [2]?
A: 0.074 µM

Q: And the Ki [3]?
A: 1.3 µM

Q: With `O=c1[nH]c2ccc(C(F)(F)F)cc2nc1C(F)(F)F` as the molecule, how does the MIC (Candida [4]) read?
A: 125 µg/mL (≈ 443 µM)

Q: What about the MIC (Candida parapsilosis) of the same molecule?
A: 125 µg/mL (≈ 443 µM)

Q: And the MIC (Candida [5])?
A: 125 µg/mL (≈ 443 µM)

Q: What about the MIC (Nakaseomyces glabratus) of the same molecule?
A: 250 µg/mL (≈ 886 µM)

Q: And the MIC (Pichia kudriavzevii)?
A: 250 µg/mL (≈ 886 µM)

Q: What about the MIC (Candida [6]) of the same molecule?
A: 125 µg/mL (≈ 443 µM)

Q: What about the MIC (Candida tropicalis) of the same molecule?
A: 250 µg/mL (≈ 886 µM)

Q: What about the MIC (Candida albicans) of the same molecule?
A: 8 µg/mL (≈ 28.4 µM)

Q: For `O=C(CC1=NC2CCCCC2NC1=O)NNC(=S)Nc1ccccc1` (stereo unspecified), which “diameter of the inhibition zone (DIZ)” value (Escherichia coli [7]) is on record?
A: 12 mm

Q: What about the “diameter of the inhibition zone (DIZ)” value (Bacillus subtilis) of the same molecule?
A: 18 mm

Q: And the “diameter of the inhibition zone (DIZ)” value (Staphylococcus aureus [8])?
A: 16 mm

Q: Which results are given for `COc1ccc(C(=O)/C=C2/Nc3ccccc3NC2=O)cc1`?
A: IC50 (MRC5): 190 µM; IC50 (A549): 66.9 µM; IC50 (HeLa): 15.2 µM; IC50 (LS174T): 24.3 µM

Q: With `Cc1ccc(S(=O)(=O)NCCCC(CC(F)(F)F)c2nc3ccccc3n(C)c2=O)cc1` (stereo unspecified) as the molecule, how does the “diameter of the inhibition zone (DIZ)” value (Pyricularia grisea [9]) read?
A: 47 mm

Q: And the Activity (Pyricularia grisea [10])?
A: 23%

Q: For `O=c1[nH]c2ccc(C(F)(F)F)cc2nc1CBr`, which MIC (Staphylococcus aureus [11]) is on record?
A: 31.2 µg/mL (≈ 102 µM)

Q: And the MIC (Candida [4])?
A: 62.5 µg/mL (≈ 204 µM)

Q: And the MIC (Candida parapsilosis)?
A: 250 µg/mL (≈ 814 µM)

Q: What about the MIC (Candida [5]) of the same molecule?
A: 15.6 µg/mL (≈ 50.8 µM)

Q: What about the MIC (Nakaseomyces glabratus) of the same molecule?
A: 62.5 µg/mL (≈ 204 µM)

Q: And the MIC (Pichia kudriavzevii)?
A: 62.5 µg/mL (≈ 204 µM)

Q: And the MIC (Candida [6])?
A: 62.5 µg/mL (≈ 204 µM)

Q: What about the MIC (Candida tropicalis) of the same molecule?
A: > 500 µg/mL

Q: What about the MIC (Candida albicans) of the same molecule?
A: 31.2 µg/mL (≈ 102 µM)

Q: Which results are given for `CSCCc1nc2ccc(N3C(=O)CSC3c3ccc(F)cc3)cc2[nH]c1=O` (stereo unspecified)?
A: MBC (Escherichia coli [12]): 46.8 µM (≈ 19.4 µg/mL); MBC (Staphylococcus aureus [11]): 23.4 µM (≈ 9.72 µg/mL); IC50 [13]: 156 µM; MBC (Klebsiella pneumoniae): 11.7 µM (≈ 4.86 µg/mL); MBC (Pseudomonas aeruginosa): 70.3 µM (≈ 29.2 µg/mL); MBC (Staphylococcus aureus [14]): 93.7 µM (≈ 38.9 µg/mL); MBC (Candida albicans): 35.1 µM (≈ 14.6 µg/mL)

Q: With `O=c1[nH]c2cc(F)c(F)cc2nc1CBr` as the molecule, how does the MIC (Staphylococcus aureus [11]) read?
A: 125 µg/mL (≈ 454 µM)

Q: What about the MIC (Candida [4]) of the same molecule?
A: 125 µg/mL (≈ 454 µM)

Q: And the MIC (Candida parapsilosis)?
A: 62.5 µg/mL (≈ 227 µM)

Q: What about the MIC (Candida [5]) of the same molecule?
A: 62.5 µg/mL (≈ 227 µM)

Q: And the MIC (Nakaseomyces glabratus)?
A: 125 µg/mL (≈ 454 µM)

Q: What about the MIC (Pichia kudriavzevii) of the same molecule?
A: 125 µg/mL (≈ 454 µM)

Q: What about the MIC (Candida [6]) of the same molecule?
A: 500 µg/mL (≈ 1820 µM)

Q: And the MIC (Candida tropicalis)?
A: 500 µg/mL (≈ 1820 µM)

Q: What about the MIC (Candida albicans) of the same molecule?
A: 31.2 µg/mL (≈ 113 µM)

Q: What does the source list for `O=C(/C=C/c1ccccc1)/C=C1/Nc2ccccc2NC1=O`?
A: IC50 (MRC5): 174 µM; IC50 (A549): 22.6 µM; IC50 (HeLa): 16.6 µM; IC50 (LS174T): 19.1 µM

Q: For `Cn1c(=O)c(C(CCCOC(=O)c2cccs2)CC(F)(F)F)nc2ccccc21` (stereo unspecified), which “diameter of the inhibition zone (DIZ)” value (Pyricularia grisea [9]) is on record?
A: 47 mm

Q: What about the Activity (Pyricularia grisea [10]) of the same molecule?
A: 23%

Q: For `O=c1[nH]c2cc(C(F)(F)F)ccc2nc1C(F)(F)F`, which MIC (Candida [4]) is on record?
A: 125 µg/mL (≈ 443 µM)

Q: And the MIC (Candida parapsilosis)?
A: 15.6 µg/mL (≈ 55.3 µM)

Q: What about the MIC (Candida [5]) of the same molecule?
A: 15.6 µg/mL (≈ 55.3 µM)

Q: What about the MIC (Nakaseomyces glabratus) of the same molecule?
A: 125 µg/mL (≈ 443 µM)

Q: And the MIC (Pichia kudriavzevii)?
A: 250 µg/mL (≈ 886 µM)

Q: What about the MIC (Candida [6]) of the same molecule?
A: 125 µg/mL (≈ 443 µM)

Q: What about the MIC (Candida tropicalis) of the same molecule?
A: 125 µg/mL (≈ 443 µM)

Q: What about the MIC (Candida albicans) of the same molecule?
A: 8 µg/mL (≈ 28.4 µM)

Q: Which MBC (Escherichia coli [12]) does the source give for `COc1ccc(C2SCC(=O)N2c2ccc3nc(Cc4ccc(O)cc4)c(=O)[nH]c3c2)cc1` (stereo unspecified) here?
A: 21.2 µM (≈ 9.74 µg/mL)

Q: And the MBC (Staphylococcus aureus [11])?
A: 15.9 µM (≈ 7.31 µg/mL)

Q: And the IC50 [13]?
A: 19.6 µM

Q: And the MBC (Pseudomonas aeruginosa)?
A: 680 µM (≈ 313 µg/mL)

Q: What about the MBC (Staphylococcus aureus [14]) of the same molecule?
A: 63.8 µM (≈ 29.3 µg/mL)

Q: What about the IC50 (Alpha amylase) of the same molecule?
A: 301.59 µM

Q: What about the MBC (Candida albicans) of the same molecule?
A: 85 µM (≈ 39.1 µg/mL)

Q: What does the source list for `O=c1[nH]c2ccccc2nc1/C=C/c1ccccc1Br`?
A: IC50 (B16-F10): 7.61 µM; IC50 (HeLa 229): > 50 µM; IC50 (HCT-116): 12.3 µM; IC50 (NCI-H460): 9.62 µM

Q: Which results are given for `Cn1c(=O)c(C(CCCOc2cc(=O)oc3ccccc23)CC(F)(F)F)nc2ccccc21` (stereo unspecified)?
A: diameter of the inhibition zone (DIZ) (Pyricularia grisea [9]): 48 mm; Activity (Pyricularia grisea [10]): 23%

Q: With `Cn1c(=O)c(C(CCCNC(=O)c2ccc(OC(F)(F)F)cc2)CC(F)(F)F)nc2ccccc21` (stereo unspecified) as the molecule, how does the “diameter of the inhibition zone (DIZ)” value (Pyricularia grisea [9]) read?
A: 32 mm

Q: What about the Activity (Pyricularia grisea [10]) of the same molecule?
A: 49%

Q: With `O=c1[nH]c2ccccc2nc1Cc1nnc(S)o1` as the molecule, how does the “diameter of the inhibition zone (DIZ)” value (Bacillus subtilis) read?
A: 10 mm

Q: What about the “diameter of the inhibition zone (DIZ)” value (Staphylococcus aureus [8]) of the same molecule?
A: 11 mm

Q: Which results are given for `C=C(C)CCC(=O)/C=C1/Nc2ccccc2NC1=O`?
A: IC50 (MRC5): 174 µM; IC50 (A549): 86.2 µM; IC50 (HeLa): 25.1 µM; IC50 (LS174T): 33.5 µM

Q: With `O=C1CN(C(=O)CNc2ccccc2O)c2ccccc2N1` as the molecule, how does the “diameter of the inhibition zone (DIZ)” value (Escherichia coli [7]) read?
A: 11 mm

Q: With `O=C(O)c1cc2c3cc(Cl)c(Cl)cc3[nH]c(=O)n2n1` as the molecule, how does the IC50 [1] read?
A: 0.89 µM

Q: What about the IC50 [15] of the same molecule?
A: 41 µM

Q: What about the Ki [2] of the same molecule?
A: 0.16 µM

Q: And the Ki [3]?
A: 2.4 µM

Q: What does the source list for `COc1ccc(C(=O)Nc2cccc(C(=O)/C=C3/Nc4ccccc4NC3=O)c2)cc1`?
A: IC50 (MRC5): 182 µM; IC50 (A549): 40.4 µM; IC50 (HeLa): 10.5 µM; IC50 (LS174T): 16.8 µM

Q: What does the source list for `O=C1CSC(c2ccc(F)cc2)N1c1ccc2nc(Cc3ccc(O)cc3)c(=O)[nH]c2c1` (stereo unspecified)?
A: MBC (Escherichia coli [12]): 32.6 µM (≈ 14.6 µg/mL); MBC (Staphylococcus aureus [11]): 43.5 µM (≈ 19.5 µg/mL); IC50 [13]: 239 µM; MBC (Klebsiella pneumoniae): 87 µM (≈ 38.9 µg/mL); MBC (Pseudomonas aeruginosa): 21.7 µM (≈ 9.71 µg/mL); MBC (Staphylococcus aureus [14]): 87 µM (≈ 38.9 µg/mL); MBC (Candida albicans): 65.2 µM (≈ 29.2 µg/mL)
